Measurements published in patent publication US5358947A, “Angiotensin II receptor blocking 2,3-substituted pyrazolo[1,5-a]-1,3,5-triazin-4(3H)-ones” (American Cyanamid Company, priority 1993, dated 1994).
Where “and” joins values, the source holds several entries; their conditions need not be identical. Equal entries are not always repeated.

System: ANGIOTENSIN II (AII) VASOPRESSOR RESPONSE
Test: AII Challenge: angiotensin II (AII) vasopressor response in conscious rats
Type: in vivo
Set-up: Response After AII / Change / Average Change: unit not given here
Conditions: 10 mg/kg i.v.; for Change / Response After AII / Control Before AII: individual rat; for Control Before AII: in mmHg (unit assumed); for % Inhibition / Average Change: n = 2
Excerpt: By administering a compound of this invention to a rat, and then challenging with angiotensin II, a blockage of the vasopressor response is realized.
Conscious Male Okamoto-Aoki SHR, 16-20 weeks old, weighing approximately 330 g are purchased from Charles River Labs (Wilmington, Mass.). Conscious rats are restrained in a supine position with elastic tape. The area at the base of the tail is locally anesthetized by subcutaneous infiltration with 2% procaine. The ventral caudal artery and vein are isolated, and a cannula made of polyethylene (PE) 10-20 tubing (fused together by heat) is passed into the lower abdominal aorta and vena cava, respectively. The cannula is secured, heparinized (1,000 I.U./ml), sealed and the wound is closed. The animals are placed in plastic restraining cages in an upright position. The cannula is attached to s Statham P23Db pressure transducer, and pulsatile blood pressure is recorded to 10-15 minutes with a Gould Brush recorder. (Chan et al., (Drug Development Res., 18:75-94, 1989).
Angiotensin II (human sequence, Sigma Chem. Co., St. Louis, Mo.) of 0.05 and 0.1 ug/kg i.v. is injected into all rats (predosing response.). Then a test compound, vehicle or a known angiotensin II antagonist is administered i.v., i.p. or orally to each set of rats. The two doses of angiotensin II are given to each rat again at 30, 60, 90, 120, 180, 240 and 300 minutes post dosing the compound or vehicle. The vasopressor response of angiotensin II by a compound is calculated using the vasopressor response (increase in systolic blood pressure) of angiotensin II of each rat predosing the compound as 100%. A compound is considered active if at 30 mg/kg i.v. it antagonized at least 50% of the response.

[1] = AII 0.05 mcg/kg, 30 min post dose
[2] = AII 0.05 mcg/kg, 30 min post dose, listed as Ex. 11
[3] = AII 0.05 mcg/kg, 60 min post dose, listed as Ex. 11
[4] = AII 0.05 mcg/kg, 60 min post dose
[5] = AII 0.05 mcg/kg, 90 min post dose
[6] = AII 0.05 mcg/kg, 90 min post dose, listed as Ex. 11
[7] = AII 0.05 mcg/kg, 120 min post dose
[8] = AII 0.05 mcg/kg, 120 min post dose, listed as Ex. 11
[9] = AII 0.05 mcg/kg, 180 min post dose
[10] = AII 0.05 mcg/kg, 180 min post dose, listed as Ex. 11
[11] = AII 0.05 mcg/kg, 240 min post dose
[12] = AII 0.05 mcg/kg, 240 min post dose, listed as Ex. 11
[13] = AII 0.05 mcg/kg, 300 min post dose
[14] = AII 0.05 mcg/kg, 300 min post dose, listed as Ex. 11
[15] = AII 0.1 mcg/kg, 30 min post dose
[16] = AII 0.1 mcg/kg, 30 min post dose, listed as Ex. 11
[17] = AII 0.1 mcg/kg, 60 min post dose
[18] = AII 0.1 mcg/kg, 90 min post dose
[19] = AII 0.1 mcg/kg, 90 min post dose, listed as Ex. 11
[20] = AII 0.1 mcg/kg, 120 min post dose
[21] = AII 0.1 mcg/kg, 120 min post dose, listed as Ex. 11
[22] = AII 0.1 mcg/kg, 180 min post dose
[23] = AII 0.1 mcg/kg, 240 min post dose
[24] = AII 0.1 mcg/kg, 240 min post dose, listed as Ex. 11
[25] = AII 0.1 mcg/kg, 300 min post dose
[26] = AII 0.1 mcg/kg, 300 min post dose, listed as Ex. 11

CCCCc1nc2cc(-c3ccco3)nn2c(=O)n1Cc1ccc(-c2ccccc2-c2nnn[nH]2)cc1 [Example 11, 2-Butyl-7-(2-furanyl)-3-[[2'-(1H-tetrazol-5-yl)[1,1'-biphenyl]-4-yl]methyl]pyrazolo[1,5-a]-1,3,5-triazin-4(3H)-one]
Change [1]: 0
Response After AII [1]: 200
Response After AII [2]: 205
Control Before AII [2]: 200 and 205
% Inhibition [1]: 100%
Average Change [1]: 0
Change [3]: 13 and 5
Response After AII [3]: 198 and 200
Control Before AII [3]: 185 and 195
% Inhibition [4]: 76%
Average Change [4]: 9
Response After AII [5]: 200
Change [6]: 10 and 15
Control Before AII [6]: 190 and 185
% Inhibition [5]: 67%
Average Change [5]: 12.5
Response After AII [7]: 195
Control Before AII [7]: 185
Change [8]: 20 and 10
Response After AII [8]: 205
% Inhibition [7]: 60%
Average Change [7]: 15
Response After AII [9]: 195
Control Before AII [9]: 185
Change [10]: 10 and 20
Response After AII [10]: 205
% Inhibition [9]: 60%
Average Change [9]: 15
Control Before AII [11]: 185
Change [12]: 25 and 15
Response After AII [12]: 210 and 200
% Inhibition [11]: 47%
Average Change [11]: 20
Control Before AII [13]: 185
Change [14]: 30 and 20
Response After AII [14]: 215 and 205
% Inhibition [13]: 33%
Average Change [13]: 25
Response After AII [15]: 192
Change [16]: 2 and 0
Response After AII [16]: 205
Control Before AII [16]: 190 and 205
% Inhibition [15]: 98%
Average Change [15]: 1
Change [17]: 10
Response After AII [17]: 205
Control Before AII [17]: 195
% Inhibition [17]: 79%
Average Change [17]: 10
Response After AII [18]: 210
Control Before AII [18]: 190
Change [19]: 20 and 15
Response After AII [19]: 205
% Inhibition [18]: 63%
Average Change [18]: 17.5
Response After AII [20]: 200
Control Before AII [20]: 185
Change [21]: 20 and 15
Response After AII [21]: 205
% Inhibition [20]: 63%
Average Change [20]: 17.5
Change [22]: 25
Response After AII [22]: 210
Control Before AII [22]: 185
% Inhibition [22]: 47%
Average Change [22]: 25
Response After AII [23]: 210
Control Before AII [23]: 185
Change [24]: 30 and 25
Response After AII [24]: 205
Control Before AII [24]: 175
% Inhibition [23]: 42%
Average Change [23]: 27.5
Response After AII [25]: 210
Control Before AII [25]: 185
Change [26]: 25 and 30
Response After AII [26]: 215
% Inhibition [25]: 42%
Average Change [25]: 27.5
